Source: ChEMBL document CHEMBL1649136, “Plasmodium falciparum pfmdr1 amplification, mefloquine resistance, and parasite fitness” (Antimicrob Agents Chemother, 2009)

Test system: Plasmodium falciparum
Assay: Antimicrobial activity against Plasmodium falciparum isolate TM3036 expressing 1 copies of pfmdr1 gene

**Q.** How did the IC50 turn out when `Cl.OC(c1cc(C(F)(F)F)nc2c(C(F)(F)F)cccc12)C1CCCCN1` (stereo unspecified) [MEFLOQUINE HYDROCHLORIDE] was run?
**A.** 1.47 ng/mL
